Experimental data: PubChem BioAssay AID1963451 (Molecular Pharmacology Branch, DTP, NCI, 2024)
pIC50: −log10 of the molar value. Where “and” joins values, the source holds several entries; their conditions need not be identical. Identical values can stand only once.

Test system: 521955-158-R6-J3-PDC complex spheroid growth, % test/control
Test: Anticancer human tumor 521955-158-R6-J3-PDC patient-derived pancreatic carcinoma cell line growth inhibition [Asc]
Conditions: for viability, T/C: stronger effect = lower value
Method in brief: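 Tumor cells were grown as complex spheroids with human endothelial cells (HUVEC) and human mesenchymal stem cells as stroma. Agents were tested alone and in combination, in half-log steps down from the clinical Cmax, or from 10 microM where Cmax was unknown.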

[1] = curve of first compound, second compound 0.0316 µM
[2] = curve of first compound, second compound 0.1 µM
[3] = curve of first compound, second compound 0.316 µM
[4] = curve of first compound, second compound 1 µM
[5] = curve of first compound, second compound 3.16 µM
[6] = curve of first compound, second compound 10 µM
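Further: spheroids exposed to compounds for 7 days.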
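Wherever viability, T/C is given: 100% = DMSO vehicle control wells.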

## CCN1C(C(=O)NC23CCC(C(=O)O)(CC2)CC3)C(c2cccc(Cl)c2F)C2(C(=O)Nc3cc(Cl)ccc32)C12CCCCC2 (stereo unspecified) + Cc1c(S(C)(=O)=O)c(-c2cc(F)cc(N3CCN(c4ccc(NS(=O)(=O)c5ccc(NC(CCN6CCC(C(=O)OCCCP(=O)(O)O)CC6)CSc6ccccc6)c(S(=O)(=O)C(F)(F)F)c5)cc4)CC3)c2)c(-c2ccc(Cl)cc2)n1C(C)C
[1]
  pIC50: < 5.52
[2]
  pIC50: < 5.52
[3]
  pIC50: > 8.02
[4]
  pIC50: > 8.02
[5]
  pIC50: > 8.02
[6]
  pIC50: > 8.02
Second compound 0.0316 µM, first compound 0.00949 µM
  viability, T/C: 102%
Second compound 0.0316 µM, first compound 0.03 µM
  viability, T/C: 78.8%
Second compound 0.0316 µM, first compound 0.0949 µM
  viability, T/C: 72.6%
Second compound 0.0316 µM, first compound 0.3 µM
  viability, T/C: 70.7%
Second compound 0.0316 µM, first compound 0.949 µM
  viability, T/C: 84.2%
Second compound 0.0316 µM, first compound 3 µM
  viability, T/C: 73.2%
Second compound 0.1 µM, first compound 0.00949 µM
  viability, T/C: 77.7%
Second compound 0.1 µM, first compound 0.03 µM
  viability, T/C: 75.7%
Second compound 0.1 µM, first compound 0.0949 µM
  viability, T/C: 67.4%
Second compound 0.1 µM, first compound 0.3 µM
  viability, T/C: 66.5%
Second compound 0.1 µM, first compound 0.949 µM
  viability, T/C: 69.4%
Second compound 0.1 µM, first compound 3 µM
  viability, T/C: 50.8%
Second compound 0.316 µM, first compound 0.00949 µM
  viability, T/C: 49.2%
Second compound 0.316 µM, first compound 0.03 µM
  viability, T/C: 51.8%
Second compound 0.316 µM, first compound 0.0949 µM
  viability, T/C: 44%
Second compound 0.316 µM, first compound 0.3 µM
  viability, T/C: 45.4%
Second compound 0.316 µM, first compound 0.949 µM
  viability, T/C: 41.2%
Second compound 0.316 µM, first compound 3 µM
  viability, T/C: 31.7%
Second compound 1 µM, first compound 0.00949 µM
  viability, T/C: 41.2%
Second compound 1 µM, first compound 0.03 µM
  viability, T/C: 25.7%
Second compound 1 µM, first compound 0.0949 µM
  viability, T/C: 39.5%
Second compound 1 µM, first compound 0.3 µM
  viability, T/C: 35%
Second compound 1 µM, first compound 0.949 µM
  viability, T/C: 30.6%
Second compound 1 µM, first compound 3 µM
  viability, T/C: 25.2%
Second compound 3.16 µM, first compound 0.00949 µM
  viability, T/C: 19.7%
Second compound 3.16 µM, first compound 0.03 µM
  viability, T/C: 17.3%
Second compound 3.16 µM, first compound 0.0949 µM
  viability, T/C: 17.5%
Second compound 3.16 µM, first compound 0.3 µM
  viability, T/C: 14.9%
Second compound 3.16 µM, first compound 0.949 µM
  viability, T/C: 13.9%
Second compound 3.16 µM, first compound 3 µM
  viability, T/C: 9.12%
Second compound 10 µM, first compound 0.00949 µM
  viability, T/C: 14.6%
Second compound 10 µM, first compound 0.03 µM
  viability, T/C: 11.3%
Second compound 10 µM, first compound 0.0949 µM
  viability, T/C: 15.8%
Second compound 10 µM, first compound 0.3 µM
  viability, T/C: 9.21%
Second compound 10 µM, first compound 0.949 µM
  viability, T/C: 18.1%
Second compound 10 µM, first compound 3 µM
  viability, T/C: 1.44%

## COc1c(OCCCN2CCOCC2)ccc2c3n(c(=NC(=O)c4cnc(N)nc4)nc12)CCN3 + Cc1c(S(C)(=O)=O)c(-c2cc(F)cc(N3CCN(c4ccc(NS(=O)(=O)c5ccc(NC(CCN6CCC(C(=O)OCCCP(=O)(O)O)CC6)CSc6ccccc6)c(S(=O)(=O)C(F)(F)F)c5)cc4)CC3)c2)c(-c2ccc(Cl)cc2)n1C(C)C
[1]
  pIC50: 6.65
[2]
  pIC50: 7.07
[3]
  pIC50: > 8.50
[4]
  pIC50: > 8.50
[5]
  pIC50: > 8.50
[6]
  pIC50: > 8.50
Second compound 0.0316 µM, first compound 0.00316 µM
  viability, T/C: 87.5%
Second compound 0.0316 µM, first compound 0.01 µM
  viability, T/C: 84.8%
Second compound 0.0316 µM, first compound 0.0316 µM
  viability, T/C: 55.2%
Second compound 0.0316 µM, first compound 0.1 µM
  viability, T/C: 70.2%
Second compound 0.0316 µM, first compound 0.316 µM
  viability, T/C: 46.7%
Second compound 0.0316 µM, first compound 1 µM
  viability, T/C: 27.4%
Second compound 0.1 µM, first compound 0.00316 µM
  viability, T/C: 82.7%
Second compound 0.1 µM, first compound 0.01 µM
  viability, T/C: 61%
Second compound 0.1 µM, first compound 0.0316 µM
  viability, T/C: 61.6%
Second compound 0.1 µM, first compound 0.1 µM
  viability, T/C: 53.4%
Second compound 0.1 µM, first compound 0.316 µM
  viability, T/C: 34%
Second compound 0.1 µM, first compound 1 µM
  viability, T/C: 17.3%
Second compound 0.316 µM, first compound 0.00316 µM
  viability, T/C: 42%
Second compound 0.316 µM, first compound 0.01 µM
  viability, T/C: 38.9%
Second compound 0.316 µM, first compound 0.0316 µM
  viability, T/C: 39%
Second compound 0.316 µM, first compound 0.1 µM
  viability, T/C: 30.5%
Second compound 0.316 µM, first compound 0.316 µM
  viability, T/C: 28%
Second compound 0.316 µM, first compound 1 µM
  viability, T/C: 13%
Second compound 1 µM, first compound 0.00316 µM
  viability, T/C: 33.9%
Second compound 1 µM, first compound 0.01 µM
  viability, T/C: 36.3%
Second compound 1 µM, first compound 0.0316 µM
  viability, T/C: 33.5%
Second compound 1 µM, first compound 0.1 µM
  viability, T/C: 20.5%
Second compound 1 µM, first compound 0.316 µM
  viability, T/C: 15.8%
Second compound 1 µM, first compound 1 µM
  viability, T/C: 6.07%
Second compound 3.16 µM, first compound 0.00316 µM
  viability, T/C: 15.3%
Second compound 3.16 µM, first compound 0.01 µM
  viability, T/C: 18.2%
Second compound 3.16 µM, first compound 0.0316 µM
  viability, T/C: 16.9%
Second compound 3.16 µM, first compound 0.1 µM
  viability, T/C: 11.9%
Second compound 3.16 µM, first compound 0.316 µM
  viability, T/C: 4.31%
Second compound 3.16 µM, first compound 1 µM
  viability, T/C: 2.03%
Second compound 10 µM, first compound 0.00316 µM
  viability, T/C: 17.6%
Second compound 10 µM, first compound 0.01 µM
  viability, T/C: 14.4%
Second compound 10 µM, first compound 0.0316 µM
  viability, T/C: 8.58%
Second compound 10 µM, first compound 0.1 µM
  viability, T/C: 7.73%
Second compound 10 µM, first compound 0.316 µM
  viability, T/C: 2.64%
Second compound 10 µM, first compound 1 µM
  viability, T/C: 1.68%

## C=C(F)C(=O)N1CCN(c2nc(OCC3CCCN3C)nc3c2CCN(c2cccc4cccc(Cl)c24)C3)CC1CC#N (stereo unspecified)
Compound 0.0316 µM
  viability, T/C: 102% (2×) and 93.7%
Compound 0.1 µM
  viability, T/C: 93.2% and 115% and 87.3%
Compound 0.316 µM
  viability, T/C: 78.6% and 89.8% and 90.9%
Compound 1 µM
  viability, T/C: 89.2% and 87.9% and 95.7%
Compound 3.16 µM
  viability, T/C: 83.7% and 86.3% and 93.3%
Compound 10 µM
  viability, T/C: 0.33% and 0.31% and 0.93%
Curve of compound
  pIC50: 5.30 and 5.27
